The values that follow come from patent publication US20140135310A1, “SULPHONAMIDE DERIVATIVES OF ALICYCLIC AMINES FOR THE TREATMENT OF CENTRAL NERVOUS SYSTEM DISEASES” (Adamed Sp. z o.o., priority 2011, published 2014).

Test [1] concerns the target 5-HT2A serotoninergic receptors (Homo sapiens, UniProt P28223). The test is described as follows: Cellular functional assay, 5-HT2A serotoninergic receptors. The class given is cell-based. The method, then: (§1) The results are expressed as a percent of control specific agonist response ((measured specific response/control specific agonist response)×100) obtained in the presence of the test compounds.
(§2) The EC50 values (concentration producing a half-maximal specific response) and IC50 values (concentration causing a half-maximal inhibition of the control specific agonist response) were determined by non-linear regression analysis of the concentration-response curves generated with mean replicate values using Hill equation curve fitting (Y=D+[(A−D)/(1+(C/C50)nH)], where Y=specific response, D=minimum specific response, A=maximum specific response, C=compound concentration, and C50=EC50 or IC50, and nH=slope factor).
(§3) For the antagonists, the apparent dissociation constants (Kb) were calculated using the modified Cheng Prusoff equation (Kb=IC50/(1+(A/EC50A)), where A=concentration of reference agonist in the assay, and EC50A=EC50 value of the reference agonist).

Test [2] deals with 5-HT7 serotoninergic receptors (Homo sapiens, UniProt P34969). Put plainly: Cellular functional assay, 5-HT7 serotoninergic receptors. The class given is cell-based. The note with it: for 5-HT7 ag [%]: agonist mode, percent of control specific agonist response. In short, it runs like this: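 Responses expressed as percent of control specific agonist response; EC50 or IC50 from Hill-equation nonlinear fits of mean replicate concentration-response curves. For antagonists, Kb derived by modified Cheng-Prusoff using reference agonist concentration and its EC50.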
Chain of 5-HT7 serotoninergic receptors (P34969 whole entry): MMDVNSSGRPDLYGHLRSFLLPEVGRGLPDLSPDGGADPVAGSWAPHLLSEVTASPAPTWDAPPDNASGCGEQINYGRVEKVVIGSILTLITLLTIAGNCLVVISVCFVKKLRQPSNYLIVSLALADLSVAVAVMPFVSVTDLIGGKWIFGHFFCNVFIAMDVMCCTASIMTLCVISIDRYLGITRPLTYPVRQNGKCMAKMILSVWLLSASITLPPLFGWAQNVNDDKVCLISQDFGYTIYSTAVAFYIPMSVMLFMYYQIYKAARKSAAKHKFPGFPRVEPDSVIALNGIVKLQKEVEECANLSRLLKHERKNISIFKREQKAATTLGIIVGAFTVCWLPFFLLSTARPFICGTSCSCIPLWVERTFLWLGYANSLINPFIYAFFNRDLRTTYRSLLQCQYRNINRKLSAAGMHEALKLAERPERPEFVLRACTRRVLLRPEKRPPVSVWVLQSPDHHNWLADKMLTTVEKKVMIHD

The target in the next test is T1, α2C adrenergic receptors (Homo sapiens, UniProt P18825).
T1 construct: expressed in transfected cells; host or cells: CHO cells
T1 sequence (P18825 1-462): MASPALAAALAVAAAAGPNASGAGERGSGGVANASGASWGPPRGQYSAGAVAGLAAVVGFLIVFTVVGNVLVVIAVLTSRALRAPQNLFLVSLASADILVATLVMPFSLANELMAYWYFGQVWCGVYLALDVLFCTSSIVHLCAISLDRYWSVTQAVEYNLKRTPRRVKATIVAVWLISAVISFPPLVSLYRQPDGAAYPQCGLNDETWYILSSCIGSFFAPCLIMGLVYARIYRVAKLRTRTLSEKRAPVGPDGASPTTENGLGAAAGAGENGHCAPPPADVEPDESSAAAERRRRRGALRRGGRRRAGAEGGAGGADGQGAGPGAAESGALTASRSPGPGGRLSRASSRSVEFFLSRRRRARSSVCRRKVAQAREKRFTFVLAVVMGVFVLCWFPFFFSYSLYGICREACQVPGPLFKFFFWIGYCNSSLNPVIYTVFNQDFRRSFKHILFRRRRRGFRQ
The test is described as follows: Radioligand binding assay, adrenergic α2C receptors. The note with it: test compound 1×10^−6 M. In short, it runs like this:
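Competitive radioligand binding at human α2C receptors, with scintillation counting. Nonspecific binding defined with excess unlabelled ligand; results given as % inhibition of control specific binding. IC50 from Hill-equation fits of competition curves; Ki via Cheng-Prusoff using radioligand concentration and Scatchard-derived KD.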

The target of another test is T2, 5-HT6 receptor (Homo sapiens, UniProt P50406).
T2 construct: purchased PerkinElmer
T2 sequence (P50406 whole entry): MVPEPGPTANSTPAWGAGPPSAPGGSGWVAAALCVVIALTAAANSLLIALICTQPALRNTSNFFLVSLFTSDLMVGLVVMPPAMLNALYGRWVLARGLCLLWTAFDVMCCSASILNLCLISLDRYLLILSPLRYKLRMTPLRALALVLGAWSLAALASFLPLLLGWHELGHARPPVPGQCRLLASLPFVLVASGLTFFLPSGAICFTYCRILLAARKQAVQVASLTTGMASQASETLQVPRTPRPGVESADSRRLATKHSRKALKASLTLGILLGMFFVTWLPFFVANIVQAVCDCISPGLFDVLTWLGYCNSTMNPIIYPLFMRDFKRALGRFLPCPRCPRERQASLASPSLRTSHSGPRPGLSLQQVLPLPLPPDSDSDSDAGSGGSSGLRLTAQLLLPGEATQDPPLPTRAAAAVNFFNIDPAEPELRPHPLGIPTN
Put plainly: Radioligand binding assay, serotoninergic 5-HT6 receptors. Conditions: for inhibition at 1 µM: binding assay result in %, Table 5a; for Ki: read-out: Inhibition constants Ki, 5-HT6. In short, it runs like this:
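Values are Ki from Cheng–Prusoff, taking IC50 from Hill nonlinear regression of competition curves and KD from a Scatchard plot. Specific binding was total minus binding with excess unlabelled ligand. Radioligand displacement was detected by scintillation counting, and data were also reported as percent of control specific binding.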

Test [3] deals with 5-HT6 serotoninergic receptors (Homo sapiens, UniProt P50406). The test is described as follows: Cellular functional assay, 5-HT6 serotoninergic receptors. The class given is cell-based. Conditions: for 5-HT6 ag [%]: agonist mode, percent of control specific agonist response. The method, then:
as §1
as §2, with “factor). This analysis was performed using a software developed at Cerep (Hill software) and validated by comparison with data generated by the commercial software SigmaPlot® 4.0 for Windows® (© 1997 by SPSS Inc.).” for “factor).”
as §3

The next test deals with T3, 5-HT7 receptor (Homo sapiens, UniProt P34969).
T3 construct: purchased PerkinElmer
T3 sequence (P34969 whole entry): as the sequence (P34969 whole entry) above
The test is described as follows: Radioligand binding assay, serotoninergic 5-HT7 receptors. The note with it: binding assay result in %, Table 5a. In short, it runs like this:
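Ki values used the Cheng–Prusoff equation, with KD from Scatchard analysis, applied to IC50 from Hill fits of human 5-HT7 radioligand competition curves. Bound radioligand was counted by scintillation, and excess unlabelled ligand set the non-specific binding.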

In another test the target is T4, receptors D4.4 (Homo sapiens, UniProt P21917).
T4 sequence (P21917 1-419): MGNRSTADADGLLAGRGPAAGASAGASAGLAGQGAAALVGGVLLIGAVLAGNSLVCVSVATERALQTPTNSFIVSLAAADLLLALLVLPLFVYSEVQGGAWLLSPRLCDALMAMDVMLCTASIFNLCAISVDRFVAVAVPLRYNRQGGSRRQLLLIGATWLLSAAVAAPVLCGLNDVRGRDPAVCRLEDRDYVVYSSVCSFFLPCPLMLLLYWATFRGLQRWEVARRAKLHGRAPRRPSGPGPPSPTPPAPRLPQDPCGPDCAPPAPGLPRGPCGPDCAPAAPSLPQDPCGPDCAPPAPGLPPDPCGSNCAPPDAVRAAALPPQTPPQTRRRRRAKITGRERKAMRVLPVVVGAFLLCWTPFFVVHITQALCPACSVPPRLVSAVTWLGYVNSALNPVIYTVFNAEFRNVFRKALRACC
The test is described as follows: Radioligand binding assay, dopaminergic D4 (D4.4) receptors. Conditions: test compound 1×10^−6 M. Summed up: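 Scintillation read-out. Specific = total − nonspecific (excess cold ligand). Data as % of control specific binding / % inhibition; IC50 by Hill fit; Ki = IC50/(1+L/KD), KD from Scatchard plot.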

The mark [4] stands for this setting: agonist mode, percent of control specific agonist response.

Where two headings read alike, the source gives them in different places.

Chain of 5-HT6 serotoninergic receptors (P50406 whole entry): as the sequence (P50406 whole entry) above
Chain of 5-HT2A serotoninergic receptors (P28223 whole entry): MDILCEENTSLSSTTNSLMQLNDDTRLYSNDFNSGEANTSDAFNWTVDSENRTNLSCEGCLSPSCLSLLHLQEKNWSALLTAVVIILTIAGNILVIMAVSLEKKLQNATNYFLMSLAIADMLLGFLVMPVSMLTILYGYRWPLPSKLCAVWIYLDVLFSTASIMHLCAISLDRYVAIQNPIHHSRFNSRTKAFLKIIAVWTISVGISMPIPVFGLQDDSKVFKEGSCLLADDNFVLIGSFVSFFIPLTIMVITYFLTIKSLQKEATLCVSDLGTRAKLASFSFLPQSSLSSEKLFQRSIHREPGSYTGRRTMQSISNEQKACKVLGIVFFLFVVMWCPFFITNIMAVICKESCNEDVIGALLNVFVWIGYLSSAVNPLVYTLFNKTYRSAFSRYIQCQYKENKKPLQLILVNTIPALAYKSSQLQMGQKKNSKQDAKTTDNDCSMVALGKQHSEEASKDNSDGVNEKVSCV

As a reminder, the inhibition is the drop in the measured response relative to a control, in per cent. Usually Ki stands for the equilibrium dissociation constant of an inhibitor or competing ligand from its target. Turning to `O=S(=O)(N[C@@H]1CCN(CCCc2noc3cc(F)ccc23)C1)c1cc2ccccc2s1` [Compound 196, N-[(3R)-1-[3-(6-Fluoro-1,2-benzoxazol-3-yl)propyl]pyrrolidin-3-yl]benzo-thiophene-2-sulphonamide], the “5-HT2A ag [%]” value in test [1] worked out at 0%. For the same molecule, the Kb was 8.3 nM in test [1] (apparent dissociation constant, modified Cheng Prusoff equation, read-out: 5-HT2A antag Kb); 0.57 nM in test [2] (apparent dissociation constant, modified Cheng Prusoff equation, read-out: 5-HT7 antag Kb); 38 nM in test [3] (apparent dissociation constant, modified Cheng Prusoff equation, read-out: 5-HT6 antag Kb). For the same molecule, the “5-HT7 ag [%]” value in test [2] is listed as 0%. The inhibition at 1 µM on α2C adrenergic receptors was determined as 89%; on 5-HT6 receptor, 99%; on 5-HT7 receptor, 101%; at receptors D4.4, 78%. Also, the Ki on 5-HT6 receptor was determined as 6.4 nM. Also, in test [3], the “5-HT6 ag [%]” value is listed as −2%.

For the molecule `O=S(=O)(N[C@H]1CCN(CCCc2noc3cc(F)ccc23)C1)c1cc2ccccc2s1` [Compound 197, N-[(3S)-1-[3-(6-Fluoro-1,2-benzoxazol-3-yl)propyl]pyrrolidin-3-yl]benzo-thiophene-2-sulphonamide], the “5-HT2A ag [%]” value in test [1] turned out to be 1%. Further, the “5-HT7 ag [%]” value in test [2] was 0%. The inhibition at 1 µM at α2C adrenergic receptors turned out to be 90%; on 5-HT6 receptor, 97%; on 5-HT7 receptor, 101%; on receptors D4.4, 81%. In addition, the Ki at 5-HT6 receptor worked out at 16 nM. For the same molecule, the “5-HT6 ag [%]” value in test [3] is recorded as −1%.

Turning to `O=S(=O)(N[C@@H]1CCN(CCCc2noc3cc(F)ccc23)C1)c1cc2ccc(Cl)cc2s1` [Compound 198, 6-Chloro-N-[(3R)-1-[3-(6-fluoro-1,2-benzoxazol-3-yl)propyl]pyrrolidin-3-yl]benzothiophene-2-sulphonamide], the “5-HT2A ag [%]” value in test [1] (setting [4]) is reported as −3%. In addition, the “5-HT7 ag [%]” value in test [2] came to 1%. Besides, the inhibition at 1 µM worked out at 80% at α2C adrenergic receptors, 97% on 5-HT6 receptor, 93% at 5-HT7 receptor and 48% at receptors D4.4. The Ki at 5-HT6 receptor worked out at 8.6 nM. For the same molecule, in test [3], the “5-HT6 ag [%]” value is reported as −1%.

On to `O=S(=O)(N[C@H]1CCN(CCCc2noc3cc(F)ccc23)C1)c1cc2ccc(Cl)cc2s1` [Compound 199, 6-Chloro-N-[(3S)-1-[3-(6-fluoro-1,2-benzoxazol-3-yl)propyl]pyrrolidin-3-yl]benzothiophene-2-sulphonamide], for which the “5-HT2A ag [%]” value in test [1] (setting [4]) is −2%. Further, the “5-HT7 ag [%]” value in test [2] is 1%. Further, the inhibition at 1 µM on α2C adrenergic receptors is 82%; on 5-HT6 receptor, 91%; on 5-HT7 receptor, 94%; on receptors D4.4 it was 69%. Also, the Ki at 5-HT6 receptor was determined as 99 nM. For the same molecule, the “5-HT6 ag [%]” value in test [3] is given as −3%.

As to `O=S(=O)(N[C@@H]1CCN(CCCc2noc3cc(F)ccc23)C1)c1ccc2cc(Cl)ccc2c1` [Compound 200, 6-Chloro-N-[(3R)-1-[3-(6-fluoro-1,2-benzoxazol-3-yl)propyl]pyrrolidin-3-yl]naphthalene-2-sulphonamide], the “5-HT2A ag [%]” value in test [1] (setting [4]) is given as 0%. In test [2], the “5-HT7 ag [%]” value is −1%. Further, the inhibition at 1 µM turned out to be 96% at α2C adrenergic receptors, 99% at 5-HT6 receptor, 93% on 5-HT7 receptor and 49% on receptors D4.4. Also, the inhibition constant Ki on 5-HT6 receptor amounted to 10 nM. For the same molecule, the “5-HT6 ag [%]” value in test [3] is reported as −2%.

Turning to `Cc1c(S(=O)(=O)N[C@@H]2CCN(CCCc3noc4cc(F)ccc34)C2)sc2ccc(F)cc12` [Compound 202, 5-Fluoro-N-[(3R)-1-[3-(6-fluoro-1,2-benzoxazol-3-yl)propyl]pyrrolidin-3-yl]-3-methyl-benzothiophene-2-sulphonamide], the “5-HT2A ag [%]” value in test [1] (setting [4]) worked out at 0%. For the same molecule, the “5-HT7 ag [%]” value in test [2] was −3%. Also, the inhibition at 1 µM on α2C adrenergic receptors amounted to 95%; on 5-HT6 receptor, 100%; on 5-HT7 receptor it was 98%; at receptors D4.4 it was 76%. Besides, the Ki on 5-HT6 receptor was found to be 7.1 nM. Also, the “5-HT6 ag [%]” value in test [3] is 1%.

As to `Cc1c(S(=O)(=O)N[C@H]2CCN(CCCc3noc4cc(F)ccc34)C2)sc2ccc(F)cc12` [Compound 203, 5-Fluoro-N-[(3S)-1-[3-(6-fluoro-1,2-benzoxazol-3-yl)propyl]pyrrolidin-3-yl]-3-methyl-benzothiophene-2-sulphonamide], in test [1] (setting [4]), the “5-HT2A ag [%]” value is −1%. The “5-HT7 ag [%]” value in test [2] is 0%. Besides, the inhibition at 1 µM on α2C adrenergic receptors worked out at 93%; at 5-HT6 receptor it was 100%; at 5-HT7 receptor, 99%; at receptors D4.4, 78%. Besides, the Ki on 5-HT6 receptor was found to be 12 nM. In addition, in test [3], the “5-HT6 ag [%]” value is recorded as −2%.

Regarding `Cc1c(S(=O)(=O)N[C@H]2CCN(CCCc3noc4cc(F)ccc34)C2)sc2ccc(Cl)cc12` [Compound 205, 5-Chloro-N-[(3S)-1-[3-(6-fluoro-1,2-benzoxazol-3-yl)propyl]pyrrolidin-3-yl]-3-methyl-benzothiophene-2-sulphonamide], the “5-HT2A ag [%]” value in test [1] (setting [4]) was −3%. Also, the “5-HT7 ag [%]” value in test [2] was −1%. The inhibition at 1 µM was 86% on α2C adrenergic receptors, 94% on 5-HT6 receptor, 98% at 5-HT7 receptor and 73% at receptors D4.4. Further, the Ki at 5-HT6 receptor turned out to be 41 nM. For the same molecule, in test [3], the “5-HT6 ag [%]” value is recorded as 1%.

As to `O=S(=O)(N[C@@H]1CCN(CCCc2noc3cc(F)ccc23)C1)c1ccc2ccccc2c1` [Compound 206, N-[(3R)-1-[3-(6-Fluoro-1,2-benzoxazol-3-yl)propyl]pyrrolidin-3-yl]naphthalene-2-sulphonamide], the “5-HT2A ag [%]” value in test [1] was −1%. Also, the “5-HT7 ag [%]” value in test [2] is −1%. Also, the inhibition at 1 µM amounted to 93% on α2C adrenergic receptors, 101% at 5-HT6 receptor, 100% at 5-HT7 receptor and 87% at receptors D4.4. On 5-HT6 receptor, the Ki amounted to 6.1 nM. Besides, the “5-HT6 ag [%]” value in test [3] is reported as −2%.

With `O=S(=O)(N[C@@H]1CCN(CCCc2noc3cc(F)ccc23)C1)c1cc2ccccc2o1` [Compound 214, N-[(3R)-1-[3-(6-Fluoro-1,2-benzoxazol-3-yl)propyl]pyrrolidin-3-yl]benzo-furan-2-sulphonamide], the “5-HT2A ag [%]” value in test [1] (setting [4]) was −2%. Moreover, in test [2], the “5-HT7 ag [%]” value was −1%. The inhibition at 1 µM at α2C adrenergic receptors was found to be 74%; at 5-HT6 receptor it was 97%; on 5-HT7 receptor, 98%; at receptors D4.4, 61%. Also, the Ki on 5-HT6 receptor came out at 7.5 nM. Also, the “5-HT6 ag [%]” value in test [3] is recorded as −4%.
